Assays:
[1] = system: Human immunodeficiency virus 1; experiment: Antiretroviral activity against wild type HIV1 in MT4 cells by MTT assay; format: functional; conditions: Human immunodeficiency virus 1, MT4; read-out: ED50 (the source's name)
[2] = Selectivity index, ratio of TC50 for MT4 cells to ED50 for HIV1; format: functional
[3] = Cytotoxicity against mock-infected C8166 cells by MTT assay; format: cell-based; conditions: human, read-out: TC50 (the source's name)
[4] = system: Human immunodeficiency virus 1; experiment: Antiretroviral activity against HIV1 wild type in C8166 cells by MTT assay; format: functional; conditions: Human immunodeficiency virus 1, C8166; read-out: ED50 (the source's name)
[5] = Selectivity index, ratio of TC50 for C8166 cells to ED50 for HIV1; format: functional
[6] = system: Human immunodeficiency virus 1; experiment: Antiviral activity against HIV1 3B in MT4 cells by MTT assay; format: functional; conditions: Human immunodeficiency virus 1, 3B, read-out: ED50 (the source's name)
[7] = system: Human immunodeficiency virus 1; experiment: Antiviral activity against HIV1 RT Y181C mutant in MT4 cells by MTT assay; format: functional; conditions: Human immunodeficiency virus 1, MT4; read-out: ED50 (the source's name)
[8] = Cytotoxicity against MT4 cells by MTT assay; format: cell-based; conditions: human, read-out: TC50 (the source's name)
[9] = system: Human immunodeficiency virus 1; experiment: Antiviral activity against HIV1 RT K103N-Y181C mutant in MT4 cells by MTT assay; format: functional; conditions: Human immunodeficiency virus 1, MT4; read-out: ED50 (the source's name)
[10] = Cytotoxicity against lymphocytes; format: cell-based, Lymphocyte; conditions: human, read-out: TC50 (the source's name)
[11] = system: Human immunodeficiency virus 1; experiment: Antiviral activity against wild type HIV1 3B in lymphocytes assessed as reduction of p24 antigen production; format: functional; conditions: Human immunodeficiency virus 1, 3B; read-out: ED50 (the source's name)
[12] = system: Human immunodeficiency virus 1; experiment: Antiviral activity against HIV1 RT 112 mutant in lymphocytes assessed as reduction of p24 antigen production; format: functional; conditions: read-out: ED50 (the source's name)
[13] = system: Human immunodeficiency virus 1; experiment: Antiviral activity against HIV1 RT AB1 mutant in lymphocytes assessed as reduction of p24 antigen production; format: functional; conditions: read-out: ED50 (the source's name)
[14] = Selectivity index, ratio of TC50 for lymphocytes to ED50 for HIV1 3B; format: functional, Homo sapiens
[15] = Selectivity index, ratio of TC50 for lymphocytes to ED50 for HIV1 RT 112 mutant; format: functional
[16] = Selectivity index, ratio of TC50 for lymphocytes to ED50 for HIV1 RT AB1 mutant; format: functional
[17] = Cytotoxicity against macrophages; format: cell-based, Macrophage; conditions: human, read-out: TC50 (the source's name)
[18] = system: Human immunodeficiency virus 1; experiment: Antiretroviral activity against HIV1 3BBa-L in macrophages assessed as reduction of p24 antigen production; format: functional; conditions: Human immunodeficiency virus 1, 3BBa-L; read-out: ED50 (the source's name)
[19] = Selectivity index, ratio of TC50 for macrophages to ED50 for HIV1 3BBa-L; format: functional
[20] = biological target: Human immunodeficiency virus type 1 reverse transcriptase (Human immunodeficiency virus 1) (UniProt Q72547)
Description: Inhibition of wild type HIV1 RT

[21] = system: Human immunodeficiency virus type 1 reverse transcriptase (Human immunodeficiency virus 1), Q72547 [K103N]
Description: Inhibition of HIV1 RT K103N mutant

[22] = system: Human immunodeficiency virus type 1 reverse transcriptase (Human immunodeficiency virus 1), Q72547 [Y181I]
[23] = system: Human immunodeficiency virus type 1 reverse transcriptase (Human immunodeficiency virus 1), Q72547 [L100I]
Description: Inhibition of HIV1 RT L100I mutant

| Compound | EC50 [1] | Selectivity index [2] | CC50 [3] | EC50 [4] | Selectivity index [5] | EC50 [6] | EC50 [7] | CC50 [8] | EC50 [9] | other results |
| --- | --- | --- | --- | --- | --- | --- | --- | --- | --- | --- |
| NC(=O)c1[nH]c2ccc(F)c(F)c2c1S(=O)(=O)c1ccccc1 | 8 nM | >2500 | > 20000 nM | 10 nM | >2000 | 8 nM | 600 nM | > 20000 nM | 18000 nM | – |
| Cc1cc(C)cc(S(=O)(=O)c2c(C(N)=O)[nH]c3cc(F)c(F)cc23)c1 | 20 nM | >1000 | > 20000 nM | 30 nM | >667 | 20 nM | 400 nM | > 20000 nM | > 20000 nM | – |
| Cc1cc(C)cc(S(=O)(=O)c2c(C(N)=O)[nH]c3cc(F)c(Cl)cc23)c1 | 12 nM | >1667 | > 20000 nM | 10 nM | >2000 | 12 nM | 50 nM | > 20000 nM | > 20000 nM | – |
| Cc1cc(C)cc(S(=O)(=O)c2c(C(N)=O)[nH]c3cc(Cl)c(Cl)cc23)c1 | 10 nM | >2000 | > 20000 nM | 15 nM | >1333 | 10 nM | 1000 nM | > 20000 nM | > 20000 nM | – |
| Cc1cc(C)cc(S(=O)(=O)c2c(C(N)=O)[nH]c3ccc(F)c(F)c23)c1 | 1 nM | >20000 | > 20000 nM | 3 nM | >6667 | 1 nM | 50 nM | > 20000 nM | 1200 nM | CC50 [10]: > 20000 nM; EC50 [11]: 20 nM; EC50 [12]: 130 nM; EC50 [13]: 84 nM; Selectivity index [14]: >1000; Selectivity index [15]: >154; Selectivity index [16]: >238; CC50 [17]: > 20000 nM; EC50 [18]: 23 nM; Selectivity index [19]: >870; ID50 [20]: 1.7 nM; ID50 [21]: 1000 nM; ID50 [22]: 2050 nM; ID50 [23]: 90 nM |
| Cc1cc(C)cc(S(=O)(=O)c2c(C(N)=O)[nH]c3cc(Cl)c(F)cc23)c1 | 50 nM | 360 | > 20000 nM | 50 nM | >400 | 50 nM | 700 nM | 18000 nM | 12000 nM | – |
| Cc1cc(C)cc(S(=O)(=O)c2c(C(N)=O)[nH]c3c(F)cc(F)cc23)c1 | 7 nM | >2857 | > 20000 nM | 25 nM | >800 | 7 nM | 1500 nM | > 20000 nM | > 20000 nM | – |
| NC(=O)c1[nH]c2cc(F)c(F)cc2c1S(=O)(=O)c1ccccc1 | 16 nM | >1250 | > 20000 nM | 20 nM | >1000 | 16 nM | 8200 nM | > 20000 nM | > 20000 nM | – |
| Cc1cc(C)cc(S(=O)(=O)c2c(C(N)=O)[nH]c3ccc(Cl)c(F)c23)c1 | 0.5 nM | >40000 | > 20000 nM | 0.8 nM | >25000 | 0.5 nM | 4 nM | > 20000 nM | 300 nM | CC50 [10]: > 20000 nM; EC50 [11]: 8 nM; EC50 [12]: 10 nM; EC50 [13]: 12 nM; Selectivity index [14]: >2500; Selectivity index [15]: >2000; Selectivity index [16]: >1667; CC50 [17]: > 20000 nM; EC50 [18]: 10 nM; Selectivity index [19]: >2000; ID50 [20]: 3 nM; ID50 [21]: 6 nM; ID50 [22]: 29 nM; ID50 [23]: 2 nM |
| O=C1Nc2ccc(Cl)cc2[C@@](C#CC2CC2)(C(F)(F)F)O1 [EFAVIRENZ] | – | – | – | – | – | – | 10 nM | – | 200 nM | CC50 [10]: > 20000 nM; EC50 [11]: 7 nM; EC50 [12]: > 20000 nM; EC50 [13]: > 20000 nM |
| Cc1ccnc2c1NC(=O)c1cccnc1N2C1CC1 [NEVIRAPINE] | – | – | – | – | – | 50 nM | 14000 nM | – | > 20000 nM | CC50 [10]: > 20000 nM; EC50 [11]: 90 nM; EC50 [12]: > 20000 nM; EC50 [13]: > 20000 nM; Selectivity index [14]: >222; ID50 [20]: 400 nM; ID50 [21]: 7000 nM; ID50 [22]: > 20000 nM; ID50 [23]: 9000 nM |
| NC(=O)c1[nH]c2cc(Cl)c(Cl)cc2c1S(=O)(=O)c1ccccc1 | 80 nM | >250 | > 20000 nM | 100 nM | >200 | 80 nM | 1700 nM | > 20000 nM | > 20000 nM | – |
| Cc1cc(C)cc(S(=O)(=O)c2c(C(N)=O)[nH]c3c(Cl)cc(Cl)cc23)c1 | 21 nM | >952 | > 20000 nM | 12 nM | >1667 | 21 nM | 4200 nM | > 20000 nM | > 20000 nM | – |
| Cc1cc(C)cc(S(=O)(=O)c2c(C(N)=O)[nH]c3ccc(F)c(Cl)c23)c1 | 8 nM | >2500 | > 20000 nM | 9 nM | >2222 | 8 nM | 2200 nM | > 20000 nM | > 20000 nM | – |

From ChEMBL document CHEMBL1148796 (J Med Chem, 2007)
